# Data as given in patent publication US20160115540A1, “PRODRUGS AND DRUGS” (Biogen MA Inc., priority 2013, published 2016).
# Structures can show the parent of a compound that is named as a salt.
# System: blood and tissues
# Experiment: Transcriptional profiling, multi-dosing regimen, naïve mice: blood and other tissues
# Type: in vivo
# Conditions: for Number of differentially expressed genes identified: Cerebellum / Number of differentially expressed genes identified: Lymph Node / Number of differentially expressed genes identified: Whole blood: Table 13: Naïve, Single Dose (so in the source), 12 h after last dosing
# Description: In vivo, DMF is rapidly metabolized to monomethyl fumarate (MMF). […] Animals were exposed to CO2 and whole blood collected via cardiac puncture. Two 100 μl aliquots of whole blood were collected in 1.5 mL microcentrifuge tubes and snap frozen in liquid nitrogen. Peripheral (liver, spleen, kidney and jejunum) and CNS brain (cerebellum, hippocampus, striatum and cortex) tissues were harvested and snap frozen in liquid nitrogen, with special care taken to collect tissues of similar size and from the same location. All samples were stored at -80° C. until RNA extraction was conducted. For RNA preparation, frozen tissues were placed in 2 mL RNAse-free 96-well blocks with 1.5 mL QIAzol Lysis Reagent (QIAgen) and a 3.2 mm stainless steel bead (BioSpec Products, Bartlesville, Okla.). Tissues were disrupted for four cycles of 45 seconds in a Mini-Beadbeater (Biospec Products). RNA was extracted in chloroform and the aqueous phase was mixed with an equal volume of 70% ethanol. Extracted RNA was applied to RNeasy 96 plates and purified by the spin method according to the manufacturer's protocol (RNeasy 96 Universal Tissue Protocol, QIAgen, Hilden Germany). 50 ul of snap frozen mouse blood was re-suspended in lysis buffer with proteinase K and arrayed into deep-well plates for automated RNA extraction. RNA extractions were completed on […] (Beckman Coulter, Indianapolis, Ind.) using Agencourt RNAdvance Blood kit (Part number A35604) according to the manufacturer's specifications. RNA integrity was assessed using the HT RNA reagent kit (Part number 760410, Caliper Life Sciences, Hopkinton, Mass.) using a LabChip GX (PerkinElmer, Waltham, Mass.). RNA samples with a RQS score of >8.0 were considered high quality for downstream microarray processing. […] Two micrograms of biotin labeled […] probe were hybridized to Affymetrix GeneChip Affymetrix HT_MG-430_PM plate arrays with modified conditions as described in […] et al. Washing and staining of the hybridized arrays were completed as described in the GeneChip Expression analysis technical manual for HT plate arrays using the Genechip® Array Station (Affymetrix, Santa Clara, Calif.) with modifications as described in […] et al. The processed GeneChip® plate arrays were scanned using GeneTitan scanner (Affymetrix, Santa Clara, Calif.). Affymetrix scans were subject to quality control (QC) measures. These tests included a visual inspection of the distribution of raw signal intensities and an assessment of RNA degradation, relative log expression (RLE), and normalized unsealed standard error (NUSE). All sample scans that passed these QC metrics were included in the analysis. All CEL files were subjected to GC-content-based Robust Multi-array Average (GCRMA) normalization (version 2.20.0) (Irizarry R A, et al. Nucleic Acids Res 2003; 31:e15; Li C, et al. Genome Biol 2001; 2:[…]0032). […] Stat Appl Genet Mol Biol 2004; 3:Article3). […] Springer Science+Business Media 2005). Changes in gene expression were studied by applying a linear modeling approach to fit gene expression levels according to the defined groups of samples (e.g. DMF-, MMF-, and Vehicle-treated animals) and Bayesian posterior error analysis as implemented by Smyth (Smyth G K. Stat Appl Genet Mol Biol 2004; 3:Article3). The comparisons considered included: DMF-vs-MMF, DMF-vs-Vehicle, and MMF-vs-Vehicle. […] Very few DEGs are observed in blood and tissues derived from the central nervous system (brain, cerebellum, cortex, striatum, and spinal cord).
# [1] = CEREBELLUM, 100DMF-vs-Veh, naïve multidose
# [2] = LYMPH NODE, 100DMF-vs-Veh, naïve multidose
# [3] = WHOLE BLOOD, 100DMF-vs-100MMF, naïve multidose
# [4] = CEREBELLUM, 100MMF-vs-Veh, naïve multidose
# [5] = LYMPH NODE, 100MMF-vs-Veh, naïve multidose
# [6] = WHOLE BLOOD, 100MMF-vs-Veh, naïve multidose
compound,measurement,setting,value
"COC(=O)/C=C/C(=O)OC [DMF, dimethyl fumarate]",FC,"1110020A21Rik 1439574_PM_at, WHOLE BLOOD, 100DMF-vs-Veh",−1.77
same,FC,"8430427H17Rik 1428284_PM_at, WHOLE BLOOD, 100DMF-vs-Veh",−1.73
same,FC 1110021J02Rik (1419892_PM_at),[1],1.54
same,FC Aox1 (1419435_PM_at),[1],1.60
same,FC Apold1 (1441228_PM_at),[1],1.85
same,FC Cnnm3 (1420481_PM_at),[1],1.62
same,FC Prr15 (1452473_PM_at),[1],1.80
same,FC Rapgef4 (1421622_PM_a_at),[1],−1.55
same,FC Tgm2 (1437277_PM_x_at),[1],1.51
same,FC probe 1457266_PM_at (no gene symbol),[1],1.51
same,FC Ccl6 (1420249_PM_s_at),[2],1.66
same,FC Ccl17 (1419413_PM_at),[2],−1.57
same,FC Nqo1 (1423627_PM_at),[2],1.95
same,FC Nts (1422860_PM_at),[2],2.72
same,FC,"Parm1 1424214_PM_at, WHOLE BLOOD, 100DMF-vs-Veh",−1.68
same,FC,"Pla2g7 1430700_PM_a_at, WHOLE BLOOD, 100DMF-vs-Veh",1.65
same,FC,"Slc27a2 1416316_PM_at, WHOLE BLOOD, 100DMF-vs-Veh",−2.37
same,Number of differentially expressed genes identified: Cerebellum,100 mpk DMF-vs-90 mpk MMF,0
same,Number of differentially expressed genes identified: Lymph Node,100 mpk DMF-vs-90 mpk MMF,0
same,Number of differentially expressed genes identified: Whole blood,100 mpk DMF-vs-90 mpk MMF,0
same,Number of differentially expressed genes identified: Cerebellum,100 mpk DMF-vs-Vehicle,8
same,Number of differentially expressed genes identified: Lymph Node,100 mpk DMF-vs-Vehicle,4
same,Number of differentially expressed genes identified: Whole blood,100 mpk DMF-vs-Vehicle,5
same,FC 2610001J05Rik (1448002_PM_x_at),[3],−4.35
same,FC 8430408G22Rik (1433836_PM_a_at),[3],1.78
same,FC A730017C20Rik (1437528_PM_x_at),[3],1.56
same,FC Aco1 (1456728_PM_x_at),[3],1.56
same,FC Cadm2 (1435146_PM_s_at),[3],1.50
same,FC Cdk7 (1424257_PM_at),[3],1.73
same,FC Cherp (1436885_PM_a_at),[3],1.53
same,FC Neo1 (1447694_PM_x_at),[3],−3.98
"COC(=O)/C=C/C(=O)O [MMF, monomethyl fumarate]",FC,"1447339_PM_at (no gene symbol), WHOLE BLOOD, 100MMF-vs-Veh",2.49
same,FC 1110021J02Rik (1419892_PM_at),[4],1.56
same,FC 9430064I24Rik (1442912_PM_at),[4],1.86
same,FC Aox1 (1419435_PM_at),[4],1.54
same,FC Apold1 (1441228_PM_at),[4],1.95
same,FC Cntn2 (1456962_PM_at),[4],1.98
same,FC D130062J21Rik (1446929_PM_at),[4],1.66
same,FC Kat2b (1450821_PM_at),[4],−1.68
same,FC Lrrc50 (1421974_PM_at),[4],1.61
same,FC Pcsk1n (1416965_PM_at),[4],1.50
same,FC Prr15 (1452473_PM_at),[4],1.53
same,FC Slc35a5 (1423457_PM_at),[4],−1.50
same,FC Sox12 (1439754_PM_at),[4],1.67
same,FC Tm6sf2 (1425079_PM_at),[4],1.85
same,FC probe 1442605_PM_at (no gene symbol),[4],−1.75
same,FC probe 1446131_PM_at (no gene symbol),[4],1.78
same,FC,"Csf1 1460220_PM_a_at, WHOLE BLOOD, 100MMF-vs-Veh",1.75
same,FC,"Csrp3 1460318_PM_at, WHOLE BLOOD, 100MMF-vs-Veh",1.52
same,FC,"Egr3 1436329_PM_at, WHOLE BLOOD, 100MMF-vs-Veh",−1.60
same,FC,"Gstm1 1416416_PM_x_at, WHOLE BLOOD, 100MMF-vs-Veh",1.59
same,FC Gtf2ird1 (1460364_PM_at),[5],1.56
same,FC Npas2 (1421037_PM_at),[5],1.75
same,FC Nqo1 (1423627_PM_at),[5],1.74
same,FC,"Lpl 1415904_PM_at, WHOLE BLOOD, 100MMF-vs-Veh",2.65
same,FC,"Pla2g7 1430700_PM_a_at, WHOLE BLOOD, 100MMF-vs-Veh",1.76
same,FC,"Slc27a2 1416316_PM_at, WHOLE BLOOD, 100MMF-vs-Veh",−1.93
same,Number of differentially expressed genes identified: Cerebellum,90 mpk MMF-vs-Vehicle,15
same,Number of differentially expressed genes identified: Lymph Node,90 mpk MMF-vs-Vehicle,3
same,Number of differentially expressed genes identified: Whole blood,90 mpk MMF-vs-Vehicle,11
same,FC,"Tnfaip2 1416273_PM_at, WHOLE BLOOD, 100MMF-vs-Veh",1.81
same,FC,"Tnfaip2 1438855_PM_x_at, WHOLE BLOOD, 100MMF-vs-Veh",1.52
same,FC,"Trf 1425546_PM_a_at, WHOLE BLOOD, 100MMF-vs-Veh",1.56
same,FC A230048O21Rik (1458051_PM_at),[6],1.53
same,FC Aco1 (1456728_PM_x_at),[6],−2.14
same,FC Adamts20 (1456901_PM_at),[6],−1.69
same,FC Adora2a (1460710_PM_at),[6],1.66
same,FC Ankrd33b (1453782_PM_at),[6],−1.64
same,FC Anks1b (1460449_PM_at),[6],−1.56
same,FC Armcx2 (1456739_PM_x_at),[6],−1.76
same,FC Ascc3 (1457069_PM_at),[6],−1.61
same,FC B3galnt2 1454842_PM_a_at,[6],−1.86
same,FC B3galt1 (1455234_PM_at),[6],−1.50
same,FC Cno 1459783_PM_s_at,[6],−1.77
same,FC Commd3 (1454642_PM_a_at),[6],−1.50
same,FC Cycs /// Gm10053 1456071_PM_a_at,[6],−1.64
same,FC D6Wsu116e (1456056_PM_a_at),[6],−1.74
same,FC Ddr1 (1456226_PM_x_at),[6],−1.58
same,FC Dnaja1 (1459835_PM_s_at),[6],−1.60
same,FC Eftud2 (1456107_PM_x_at),[6],−1.61
same,FC Eif4g2 (1452758_PM_s_at),[6],−1.91
same,FC Epc2 (1455317_PM_at),[6],−1.56
same,FC Fgd4 (1455337_PM_at),[6],−1.52
same,FC Fgfbp3 (1453006_PM_at),[6],−1.58
same,FC Gm8203 /// H2afz (1456032_PM_x_at),[6],−1.53
same,FC Gsto1 1456036_PM_x_at,[6],−1.64
same,FC Gtf3c3 (1454765_PM_at),[6],−1.82
same,FC Hecw1 (1456527_PM_at),[6],−1.55
same,FC Hspa1b 1452318_PM_a_at,[6],−1.57
same,FC Itga8 (1454966_PM_at),[6],−1.51
same,FC Kbtbd7 (1452700_PM_s_at),[6],−1.52
same,FC Kcnt2 (1459971_PM_at),[6],−1.73
same,FC Kctd3 1455816_PM_a_at,[6],−1.88
same,FC Lasp1 (1455470_PM_x_at),[6],−1.56
same,FC Lrrtm1 (1455883_PM_a_at),[6],−1.60
same,FC Lztr1 (1455928_PM_x_at),[6],−2.01
same,FC Matn2 (1455978_PM_a_at),[6],−2.07
same,FC Mrps23 (1459806_PM_x_at),[6],−1.56
same,FC Nr3c1 (1457635_PM_s_at),[6],−1.58
same,FC Odz2 (1457273_PM_at),[6],−1.53
same,FC Olfm1 (1455796_PM_x_at),[6],−1.65
same,FC Pcdh17 (1453070_PM_at),[6],−1.53
same,FC Pik3ca (1453134_PM_at),[6],−1.62
same,FC Pitrm1 (1456577_PM_x_at),[6],−1.68
same,FC Prcp (1452190_PM_at),[6],1.53
same,FC Ptpn12 (1455105_PM_at),[6],−1.54
same,FC Pvrl3 (1457257_PM_x_at),[6],−2.12
same,FC Qrsl1 (1456542_PM_s_at),[6],−1.67
same,FC Ralgapa2 (1455750_PM_at),[6],−1.74
same,FC Ric8 (1455809_PM_x_at),[6],−1.56
same,FC Rnf112 (1456108_PM_x_at),[6],−1.57
same,FC Rp2h (1454816_PM_at),[6],−1.51
same,FC Snx16 (1456041_PM_at),[6],−1.78
same,FC Sos2 (1452281_PM_at),[6],−1.56
same,FC Surf4 (1455822_PM_x_at),[6],−1.56
same,FC Tceb1 1452593_PM_a_at,[6],−1.52
same,FC Tmed10 (1454688_PM_x_at),[6],−1.52
same,FC Tnik (1458403_PM_at),[6],−1.58
same,FC Tra2a (1454725_PM_at),[6],−1.65
same,FC Trim23 (1456089_PM_at),[6],−1.71
same,FC Ubr3 (1460455_PM_at),[6],−1.63
same,FC Wdr6 (1455940_PM_x_at),[6],−1.50
same,FC Wtap (1454805_PM_at),[6],−1.57
same,FC probe 1452426_PM_x_at (no gene symbol),[6],−1.56
same,FC probe 1455603_PM_at (no gene symbol),[6],−1.71
same,FC probe 1457494_PM_at (no gene symbol),[6],−1.53
same,FC probe 1458639_PM_at (no gene symbol),[6],1.51
same,FC probe 1459409_PM_at (no gene symbol),[6],1.71
